The NIST ThermoML archive (doi:10.1016/j.jct.2011.08.016)

Experiment: xn = mol fraction of the nth substance listed
Details: Liquid, Vibrating tube method

CCCCCCCCCC [decane] + CCCCCCCC
Details | mass density [kg/m3]
313.19 K, 10000 kPa, x2 = 0.5314 | 710.43
313.19 K, 10000 kPa, x2 = 0.7736 | 703.28
313.19 K, 10990 kPa, x2 = 0.5314 | 711.26
313.19 K, 10990 kPa, x2 = 0.7736 | 704.16
313.19 K, 12000 kPa, x2 = 0.5314 | 712.06
313.19 K, 12000 kPa, x2 = 0.7736 | 705
313.19 K, 13000 kPa, x2 = 0.5314 | 712.86
313.19 K, 13000 kPa, x2 = 0.7736 | 705.81
313.19 K, 14000 kPa, x2 = 0.5314 | 713.65
313.19 K, 14000 kPa, x2 = 0.7736 | 706.63
313.19 K, 15000 kPa, x2 = 0.5314 | 714.44
313.19 K, 15000 kPa, x2 = 0.7736 | 707.47
313.19 K, 16000 kPa, x2 = 0.5314 | 715.21
313.19 K, 16000 kPa, x2 = 0.7736 | 708.28
313.19 K, 17000 kPa, x2 = 0.5314 | 715.97
313.19 K, 17000 kPa, x2 = 0.7736 | 709.1
313.19 K, 18000 kPa, x2 = 0.5314 | 716.73
313.19 K, 18000 kPa, x2 = 0.7736 | 709.83
313.19 K, 19000 kPa, x2 = 0.5314 | 717.47
313.19 K, 19000 kPa, x2 = 0.7736 | 710.61
313.19 K, 20000 kPa, x2 = 0.5314 | 718.2
313.19 K, 20000 kPa, x2 = 0.7736 | 711.34
313.19 K, 21000 kPa, x2 = 0.5314 | 718.89
313.19 K, 21000 kPa, x2 = 0.7736 | 712.07
313.19 K, 22000 kPa, x2 = 0.5314 | 719.56
313.19 K, 22000 kPa, x2 = 0.7736 | 712.79
313.19 K, 23000 kPa, x2 = 0.5314 | 720.23
313.19 K, 23000 kPa, x2 = 0.7736 | 713.47
313.19 K, 24000 kPa, x2 = 0.5314 | 720.88
313.19 K, 24000 kPa, x2 = 0.7736 | 714.14
313.19 K, 25000 kPa, x2 = 0.5314 | 721.52
313.19 K, 25000 kPa, x2 = 0.7736 | 714.77
323.13 K, 1000 kPa, x2 = 0.2801 | 701.5
323.13 K, 2000 kPa, x2 = 0.2801 | 702.42
323.13 K, 3000 kPa, x2 = 0.2801 | 703.33
323.13 K, 4000 kPa, x2 = 0.2801 | 704.26
323.13 K, 5000 kPa, x2 = 0.2801 | 705.16
323.13 K, 6000 kPa, x2 = 0.2801 | 706.06
323.13 K, 7000 kPa, x2 = 0.2801 | 706.95
323.13 K, 8000 kPa, x2 = 0.2801 | 707.83
323.13 K, 9000 kPa, x2 = 0.2801 | 708.7
323.13 K, 10000 kPa, x2 = 0.2801 | 709.57
323.13 K, 10990 kPa, x2 = 0.2801 | 710.5
323.13 K, 12000 kPa, x2 = 0.2801 | 711.29
323.13 K, 13000 kPa, x2 = 0.2801 | 712.12
323.13 K, 14000 kPa, x2 = 0.2801 | 712.97
323.13 K, 15000 kPa, x2 = 0.2801 | 713.78
323.13 K, 16000 kPa, x2 = 0.2801 | 714.58
323.13 K, 17000 kPa, x2 = 0.2801 | 715.38
323.13 K, 18000 kPa, x2 = 0.2801 | 716.14
323.13 K, 19000 kPa, x2 = 0.2801 | 716.9
323.13 K, 20000 kPa, x2 = 0.2801 | 717.66
323.13 K, 21000 kPa, x2 = 0.2801 | 718.38
323.13 K, 22000 kPa, x2 = 0.2801 | 719.06
323.13 K, 23000 kPa, x2 = 0.2801 | 719.71
323.13 K, 24000 kPa, x2 = 0.2801 | 720.38
323.13 K, 25000 kPa, x2 = 0.2801 | 721
323.15 K, 1000 kPa, x2 = 0.5314 | 694.85
323.15 K, 1000 kPa, x2 = 0.7736 | 687.38
323.15 K, 1000 kPa, x2 = 0.9623 | 680.8
323.15 K, 2000 kPa, x2 = 0.5314 | 695.78
323.15 K, 2000 kPa, x2 = 0.7736 | 688.41
323.15 K, 2000 kPa, x2 = 0.9623 | 681.8
323.15 K, 3000 kPa, x2 = 0.5314 | 696.73
323.15 K, 3000 kPa, x2 = 0.7736 | 689.33
323.15 K, 3000 kPa, x2 = 0.9623 | 682.74
323.15 K, 4000 kPa, x2 = 0.5314 | 697.62
323.15 K, 4000 kPa, x2 = 0.7736 | 690.27
323.15 K, 4000 kPa, x2 = 0.9623 | 683.68
323.15 K, 5000 kPa, x2 = 0.5314 | 698.58
323.15 K, 5000 kPa, x2 = 0.7736 | 691.21
323.15 K, 5000 kPa, x2 = 0.9623 | 684.65
323.15 K, 6000 kPa, x2 = 0.5314 | 699.53
323.15 K, 6000 kPa, x2 = 0.7736 | 692.18
323.15 K, 6000 kPa, x2 = 0.9623 | 685.6
323.15 K, 7000 kPa, x2 = 0.5314 | 700.45
323.15 K, 7000 kPa, x2 = 0.7736 | 693.12
323.15 K, 7000 kPa, x2 = 0.9623 | 686.57
323.15 K, 8000 kPa, x2 = 0.5314 | 701.36
323.15 K, 8000 kPa, x2 = 0.7736 | 694.08
323.15 K, 8000 kPa, x2 = 0.9623 | 687.54
323.15 K, 9000 kPa, x2 = 0.5314 | 702.24
323.15 K, 9000 kPa, x2 = 0.7736 | 694.99
323.15 K, 9000 kPa, x2 = 0.9623 | 688.5
323.15 K, 10000 kPa, x2 = 0.5314 | 703.12
323.15 K, 10000 kPa, x2 = 0.7736 | 695.89
323.15 K, 10000 kPa, x2 = 0.9623 | 689.46
323.15 K, 10990 kPa, x2 = 0.5314 | 703.99
323.15 K, 10990 kPa, x2 = 0.7736 | 696.8
323.15 K, 10990 kPa, x2 = 0.9623 | 690.4
323.15 K, 12000 kPa, x2 = 0.5314 | 704.86
323.15 K, 12000 kPa, x2 = 0.7736 | 697.73
323.15 K, 12000 kPa, x2 = 0.9623 | 691.34
323.15 K, 13000 kPa, x2 = 0.5314 | 705.72
